From the NIST ThermoML archive (doi:10.1021/je9005882)
Numbers after ± are expanded uncertainties.

Experiment: excess molar enthalpy (molar enthalpy of mixing); xn = mol fraction of the nth substance listed
Conditions: 303.15 K, 101 kPa, Liquid

BrCBr [dibromomethane] + CO
Conditions	excess molar enthalpy [kcal/mol]
x1 = 0.1506	0.0433 ± 0.00406
x1 = 0.2779	0.0978 ± 0.00765
x1 = 0.3148	0.113 ± 0.00837
x1 = 0.4026	0.138 ± 0.01
x1 = 0.504	0.153 ± 0.011
x1 = 0.6195	0.169 ± 0.012
x1 = 0.7224	0.187 ± 0.0131
x1 = 0.921	0.154 ± 0.011
x1 = 0.9515	0.111 ± 0.00837
x1 = 0.9781	0.0583 ± 0.00502

BrCBr [dibromomethane] + C[S+](C)[O-]
Conditions	excess molar enthalpy [kcal/mol]
x1 = 0.062	-0.0507 ± 0.00239
x1 = 0.1162	-0.0856 ± 0.00359
x1 = 0.2682	-0.175 ± 0.00669
x1 = 0.3407	-0.201 ± 0.00741
x1 = 0.4342	-0.227 ± 0.00837
x1 = 0.503	-0.24 ± 0.00884
x1 = 0.5251	-0.242 ± 0.00884
x1 = 0.6466	-0.228 ± 0.00837
x1 = 0.7285	-0.202 ± 0.00765
x1 = 0.8234	-0.152 ± 0.00574
x1 = 0.8934	-0.103 ± 0.00406

BrCBr [dibromomethane] + O=C1CCCN1
Conditions	excess molar enthalpy [kcal/mol]
x1 = 0.0955	-0.0918 ± 0.00382
x1 = 0.151	-0.134 ± 0.00526
x1 = 0.2158	-0.177 ± 0.00669
x1 = 0.2999	-0.216 ± 0.00813
x1 = 0.4044	-0.246 ± 0.00908
x1 = 0.5247	-0.241 ± 0.00884
x1 = 0.613	-0.22 ± 0.00813
x1 = 0.7203	-0.174 ± 0.00669
x1 = 0.7913	-0.127 ± 0.00502
x1 = 0.8401	-0.0968 ± 0.00382
x1 = 0.9084	-0.0507 ± 0.00239

BrCBr [dibromomethane] + c1ccccc1
Conditions	excess molar enthalpy [kcal/mol]
x1 = 0.0931	0.00956 ± 0.000956
x1 = 0.253	0.0196 ± 0.00143
x1 = 0.3416	0.0241 ± 0.00143
x1 = 0.4618	0.0284 ± 0.00167
x1 = 0.5464	0.0318 ± 0.00167
x1 = 0.6705	0.0311 ± 0.00167
x1 = 0.7405	0.0304 ± 0.00167
x1 = 0.8394	0.0237 ± 0.00143
x1 = 0.9506	0.0098 ± 0.000956
